Assay results taken from patent publication US20210253643A1, “HYDROPHOBIC BIOMOLECULE STABILIZING SCAFFOLD PEPTIDES AND METHODS OF MAKING AND USING SAME” (The University of British Columbia, priority 2018, published 2021).
No end group written: not given here.

Tests used:
[1] = Peptide solubility by turbidity of peptide suspensions at 550 nm; settings: for Solubility (/5): Experiment #2, score 1 to 5; for Solubility: Experiment #1, score 1 to 5, turbidity at 550 nm
Procedure: The solubility of the peptides was determined by measuring the turbidity of each of the peptide suspensions at 550 nm. The numbers 1 to 5 were used denote the degree of solubility, where 1 means poor solubility and 5 means high solubility.

[2] = test system: membrane proteins MsbA and FhuA; assay: On-gel reconstitution efficiency of membrane proteins; assay type: biochemical, E. coli; design: key: 1 means poor reconstitution; 5 means efficient reconstitution
Procedure: Bands were visualized by Coomassie Blue G250 staining.
(§1) Table 10 summarizes the biophysical, structural and experimental characteristics of the tested NSP peptide variants. […] The number of inter-helix salt bridges formed between the AH1 and AH2 regions for each of the tested amphipathic peptide variants was also determined.

[3] = molecular target: T1, photosynthetic bacterial reaction center (BRC) (Cereibacter sphaeroides, UniProt P0C0Y7+P0C0Y8+P0C0Y9); assay: Thermostability of the BRC complex (absorbance at 803 nm after incubation at 65° C.); assay type: physicochemical, Rhodobacter sphaeroides; settings: 0.03% LDAO
T1 construct: placed on H from own knowledge of pIND4-RC1; made in house; host or cells: Rhodobacter sphaeroides RcX (ΔpuhA, ΔpufQBALMX, ΔrshI, ΔppsR), plasmid pIND4-RC1
Procedure: Reconstitution of the BRC in peptidiscs, low lipid nanodiscs, and styrene maleic acid nanoparticles: The purified BRC complex (1 mg/mL) was mixed at a 1:1.8 (μg/μg) ratio with NSPr followed by 10-fold dilution in Buffer A to decrease the LDAO concentration to 0.003%. For formation of low-lipid nanodiscs, the purified BRC complex was instead mixed at a 1:2 (mol/mol) ratio with MSP1D1 before dilution. Alternatively, an equivalent amount of BRC was diluted in Buffer A supplemented with 0.03% LDAO, 0.02% DDM, 0.1% SMA or 0.1% SDS as described. After incubation for 10 minutes on ice, aggregated proteins were removed by centrifugation (13,000×g, 10 min at 4° C.). […]
Absorbance spectroscopy: Absorption spectra were recorded using a Hitachi U-3010 spectrophotometer. A blank measurement was recorded in Buffer A(+0.03% LDAO for detergent purified BRC). Samples were incubated in a PCR thermocycler at the indicated temperature, and then measured at the desired time points in a quartz cuvette at room temperature. […]
The photosynthetic bacterial reaction center (BRC) from Rhodobacter sphaeroides was reconstituted into peptidiscs using NSPr. FIG. 21A illustrates the absorbance scans of the BRC (1 μM) in detergent solution (0.03% LDAO (lauryldimethylamine oxide)) and in peptidisc. Scans were normalized to the value measured at 803 nm (the absorbance peak of the accessory bacteriochlorophylls). […]

[4] = test system: membrane proteins; assay: Competition with equimolar NSPr-FAM during on-gel reconstitution of membrane proteins; assay type: biochemical; settings: 0 no competition, 100 full competition
Procedure: as §1

[5] = Experiment #1, score 1 to 5, on-gel, MsbA and FhuA

For “FAAKFKEAVKDYFAKFWDPAAEKLAEAVADYFAALWD [3 SB Disruption H2, FAAKFKEAVKDYFAKFWD P AAEKLAEAVADYFAALWD]”, the “Solubility (/5)” value [1] was 5.
In the case of `CC(C)C[C@H](NC(=O)[C@H](CCCCN)NC(=O)[C@H](C)NC(=O)[C@H](Cc1ccccc1)NC(=O)[C@H](Cc1ccc(O)cc1)NC(=O)[C@H](CC(=O)O)NC(=O)[C@H](CCCCN)NC(=O)[C@@H](NC(=O)[C@H](C)NC(=O)[C@H](CCC(=O)O)NC(=O)[C@H](CCCCN)NC(=O)[C@H](CC(C)C)NC(=O)[C@H](CCCCN)NC(=O)[C@H](CCC(=O)O)NC(=O)[C@H](C)NC(=O)[C@H](C)NC(=O)[C@@H]1CCCN1C(=O)[C@H](CC(=O)O)NC(=O)[C@H](Cc1c[nH]c2ccccc12)NC(=O)[C@H](Cc1ccccc1)NC(=O)[C@H](CCCCN)NC(=O)[C@H](C)NC(=O)[C@H](Cc1ccccc1)NC(=O)[C@H](Cc1ccc(O)cc1)NC(=O)[C@H](CC(=O)O)NC(=O)[C@H](CCCCN)NC(=O)[C@@H](NC(=O)[C@H](C)NC(=O)[C@H](CCC(=O)O)NC(=O)[C@H](CCCCN)NC(=O)[C@H](Cc1ccccc1)NC(=O)[C@H](CCCCN)NC(=O)[C@H](CCC(=O)O)NC(=O)[C@H](C)NC(=O)[C@H](Cc1ccccc1)NC(=O)[C@@H](N)CS)C(C)C)C(C)C)C(=O)N[C@@H](Cc1c[nH]c2ccccc12)C(=O)N[C@@H](CC(=O)O)C(=O)O` [NSPr-C, C FAEKFKEAVKDYFAKFWD P AAEKLKEAVKDYFAKLWD], the Solubility [1] is reported as 5 and the “Solubility (/5)” value [1] is reported as 5.
In the case of “FVEKFKEVAKDYFVKFWDPVVEKLKEVAKDYFVKLWD [Ala/Val Switch, FVEKFKEVAKDYFVKFWD P VVEKLKEVAKDYFVKLWD]”, the “Solubility (/5)” value [1] is reported as 5.
For “FAEKLKEAVKDYFAKLWDPFAEKLKEAVKDYFAKLWD [Peptide 2F-2F, FAEKLKEAVKDYFAKLWD P FAEKLKEAVKDYFAKLWD]”, the “Solubility (/5)” value [1] was 4 /5.
In the case of “DWLKAFYDKVAEKLKEAAPDWFKAFYDKVAEKFKEAF [NSP, DWLKAFYDKVAEKLKEAA P DWFKAFYDKVAEKFKEAF]”, the “Solubility (/5)” value [1] is reported as 3 /5.
For “FAEKFKEAVKDYFAKFWD P AAEKLKEAVKDYFAKLWD-pyrenebutyric acid [NSPr-pyrene]”, the Solubility [1] was 5, the “Solubility (/5)” value [1] was 5 and the “Reconstitution Efficiency (/5)” value [2, 5] was 4 /5. For the same molecule, the “Reconstitution Efficiency (/5)” value ([2]; Experiment #2, score 1 to 5) was 4 /5.
For “FADKFKDAVKEYFAKFWEPAADKLKDAVKEYFAKLWE [Neg Switch, FADKFKDAVKEYFAKFWE P AADKLKDAVKEYFAKLWE]”, the “Solubility (/5)” value [1] was 4 /5.
For “FAEAFKEAVKDYFAKFWDPAAEKLKEAVKDYFAKLWD [1 SB Disruption, FAEAFKEAVKDYFAKFWD P AAEKLKEAVKDYFAKLWD]”, the “Solubility (/5)” value [1] was 5.
Molecule “FAEKFKEAVKDYFAKFWDGAAEKLKEAVKDYFAKLWD [NSPr-G, FAEKFKEAVKDYFAKFWD G AAEKLKEAVKDYFAKLWD]” has a Solubility [1] of 5.
For “FAEKFKEAVKDYFAKFWDPAAEKLKEAVKDYFAKLW [NSPr-36, FAEKFKEAVKDYFAKFWD P AAEKLKEAVKDYFAKLW]”, the “Solubility (/5)” value [1] was 3 /5.
With `CCCCCCCCCCCC[N+](C)(C)[O-]` [LDAO, lauryldimethylamine oxide] the “Time to full denaturation of BRC” value [3] was “less than 4 minutes”.
For “WAEKFKEAVKDYWAKFWDPAAEKLKEAVKDYWAKLWD [Phe/Trp Switch, WAEKFKEAVKDYWAKFWD P AAEKLKEAVKDYWAKLWD]”, the “Solubility (/5)” value [1] was 4 /5.
For “FAERFREAVRDYFARFWDPAAERLREAVRDYFARLWD [Pos Switch, FAERFREAVRDYFARFWD P AAERLREAVRDYFARLWD]”, the “Solubility (/5)” value [1] was 5.
In the case of “FAEKFKEAVKDYFAKLWDPAAEKLKEAVKDYFAKLWD [Peptide 3F-1F, FAEKFKEAVKDYFAKLWD P AAEKLKEAVKDYFAKLWD]”, the “Solubility (/5)” value [1] is reported as 5.
For “FAEKFKEAVKDYFAKFWDPAAEKFKEAVKDYFAKLFD [Peptide 4F-3F, FAEKFKEAVKDYFAKFWD P AAEKFKEAVKDYFAKLFD]”, the “Solubility (/5)” value [1] was 4 /5.
For “FAEKFKEAVKDYFAKFWDPAAEKLKEAVKDYFAKFWD [Peptide 4F-2F, FAEKFKEAVKDYFAKFWD P AAEKLKEAVKDYFAKFWD]”, the “Solubility (/5)” value [1] was 4 /5.
In the case of “FAEKFKEAVKPYFAKFWDPAAEKLKEAVKPYFAKLWD [NSPr-3P, FAEKFKEAVKPYFAKFWD P AAEKLKEAVKPYFAKLWD]”, the Solubility [1] is reported as 5 and the “Solubility (/5)” value [1] is reported as 5.
With “FAEKLKEAVKDYLAKFWDPAAEKLKEAVKDYFAKLWD [Peptide 2F-1F, FAEKLKEAVKDYLAKFWD P AAEKLKEAVKDYFAKLWD]” the “Solubility (/5)” value [1] was 5.
With “Ac-DWLKAFYDKVAEKLKEAAPDWFKAFYDKVAEKFKEAF-NH2 [Ac-NSP-NH2, Ac-DWLKAFYDKVAEKLKEAA P DWFKAFYDKVAEKFKEAF-NH2]” the Solubility [1] was 1, the “Solubility (/5)” value [1] was 1 and the “Reconstitution Efficiency (/5)” value [2, 5] was 2 /5. The “Reconstitution Efficiency (/5)” value ([2]; Experiment #2, score 1 to 5) was 2 /5, the “Competition peptide (% NSPr-FAM)” value ([4]; Experiment #1, equimolar NSPr-FAM and variant) was 10% and the “Competition NSPr-FAM (±10%)” value ([4]; Experiment #2) was 10%.
In the case of `CC(C)C[C@H](NC(=O)[C@H](CCCCN)NC(=O)[C@H](C)NC(=O)[C@H](Cc1ccccc1)NC(=O)[C@H](Cc1ccc(O)cc1)NC(=O)[C@H](CC(=O)O)NC(=O)[C@H](CCCCN)NC(=O)[C@@H](NC(=O)[C@H](C)NC(=O)[C@H](CCC(=O)O)NC(=O)[C@H](CCCCN)NC(=O)[C@H](CC(C)C)NC(=O)[C@H](CCCCN)NC(=O)[C@H](CCC(=O)O)NC(=O)[C@H](C)NC(=O)[C@H](C)NC(=O)[C@@H]1CCCN1C(=O)[C@H](CC(=O)O)NC(=O)[C@H](Cc1c[nH]c2ccccc12)NC(=O)[C@H](Cc1ccccc1)NC(=O)[C@H](CCCCN)NC(=O)[C@H](C)NC(=O)[C@H](Cc1ccccc1)NC(=O)[C@H](Cc1ccc(O)cc1)NC(=O)[C@H](CC(=O)O)NC(=O)[C@H](CCCCN)NC(=O)[C@@H](NC(=O)[C@H](C)NC(=O)[C@H](CCC(=O)O)NC(=O)[C@H](CCCCN)NC(=O)[C@H](Cc1ccccc1)NC(=O)[C@H](CCCCN)NC(=O)[C@H](CCC(=O)O)NC(=O)[C@H](C)NC(=O)[C@H](Cc1ccccc1)NC(=O)[C@H](Cc1c[nH]cn1)NC(=O)[C@H](Cc1c[nH]cn1)NC(=O)[C@H](Cc1c[nH]cn1)NC(=O)[C@H](Cc1c[nH]cn1)NC(=O)[C@H](Cc1c[nH]cn1)NC(=O)[C@@H](N)Cc1c[nH]cn1)C(C)C)C(C)C)C(=O)N[C@@H](Cc1c[nH]c2ccccc12)C(=O)N[C@@H](CC(=O)O)C(=O)O` [NSPr-6xHis, HHHHHH FAEKFKEAVKDYFAKFWD P AAEKLKEAVKDYFAKLWD], the “Solubility (/5)” value [1] is reported as 3 /5.
For “Fam-FAEKFKEAVKDYFAKFWD P AAEKLKEAVKDYFAKLWD [NSPr-FAM]”, the “Reconstitution Efficiency (/5)” value [2, 5] was 5 and the “Reconstitution Efficiency (/5)” value ([2]; Experiment #2, score 1 to 5) was 5.
With “FAEKFKEAVKDYFAKFWDPFAEKFKEAVKDYFAKFWD [Peptide 4F-4F, FAEKFKEAVKDYFAKFWD P FAEKFKEAVKDYFAKFWD]” the “Solubility (/5)” value [1] was 4 /5.
For “FAEAFKEAVKDYFAAFWDPAAEKLKEAVKDYFAKLWD [2 SB Disruption, FAEAFKEAVKDYFAAFWD P AAEKLKEAVKDYFAKLWD]”, the “Solubility (/5)” value [1] was 5.
In the case of “YAEKFKEAVKDYFAKFYDPAAEKLKEAVKDYFAKLWD [Phe/Tyr Switch, YAEKFKEAVKDYFAKFYD P AAEKLKEAVKDYFAKLWD]”, the “Solubility (/5)” value [1] is reported as 4 /5.
With “FAEKFKEAVKDYFAKFWDGAAEKLKEAVKDYFAKLWD [Pro/Gly Switch, FAEKFKEAVKDYFAKFWD G AAEKLKEAVKDYFAKLWD]” the “Solubility (/5)” value [1] was 4 /5.
For “FAEKFKEAVKDQFAKFWDPAAEKLKEAVKDQFAKLWD [Tyr/Gln Switch, FAEKFKEAVKDQFAKFWD P AAEKLKEAVKDQFAKLWD]”, the “Solubility (/5)” value [1] was 4 /5.
